{
  "source": "ChEMBL document CHEMBL4354827",
  "about": "“Discovery of Novel, Potent, Brain-Permeable, and Orally Efficacious Positive Allosteric Modulator of α7 Nicotinic Acetylcholine Receptor [4-(5-(4-Chlorophenyl)-4-methyl-2-propionylthiophen-3-yl)benzenesulfonamide]: Structure-Activity Relationship and Preclinical Characterization” (J Med Chem, 2020)",
  "key": {"[1]": {"assay": "Drug metabolism in monkey liver microsomes assessed as metabolic rate at 1 uM preincubated for 5 mins followed by NADPH addition after 30 mins by LC-MS/MS analysis", "format": "ADME, Macaca mulatta, Microsome", "settings": "rhesus monkey, 0.5 h; call rule not given here"}, "[2]": {"assay": "Metabolic stability in mouse liver microsomes assessed as compound remaining at 1 uM preincubated for 5 mins followed by NADPH addition and measured after 30 mins by LC-MS/MS analysis", "format": "ADME, Microsome", "settings": "read-out: Stability"}, "[3]": {"assay": "Metabolic stability in human pooled liver microsomes assessed as compound remaining at 1 uM preincubated for 5 mins followed by NADPH addition and measured after 30 mins by LC-MS/MS analysis", "format": "ADME, Microsome", "settings": "read-out: Stability"}, "[4]": {"assay": "Protein binding in rat plasma assessed as unbound fraction at 5 uM incubated for 16 hrs under shaking condition by LC/MS/MS based rapid equilibrium dialysis method", "format": "ADME, cell-free"}, "[5]": {"assay": "AUClast in BALB/c mouse at 10 mg/kg, po after 0.25 to 144 hrs by LC-MS/MS analysis", "format": "ADME, organism-based", "parameters": "dose 10 mg/kg, time upper 144 hr, time lower 0.25 hr, route oral", "settings": "in vivo"}, "[6]": {"assay": "Cmax in BALB/c mouse at 1 mg/kg, iv after 0.083 to 144 hrs by LC-MS/MS analysis", "format": "ADME, organism-based", "parameters": "dose 1 mg/kg, route intravenous", "settings": "in vivo"}, "[7]": {"assay": "Tmax in BALB/c mouse at 10 mg/kg, po after 0.25 to 144 hrs by LC-MS/MS analysis", "format": "ADME, organism-based", "settings": "in vivo"}, "[8]": {"assay": "Volume of distribution at steady state in Beagle dog at 1 mg/kg, iv after 0.083 to 144 hrs by LC-MS/MS analysis", "format": "ADME, organism-based, Canis lupus familiaris", "settings": "in vivo, read-out: Vdss"}, "[9]": {"assay": "Oral bioavailability in BALB/c mouse at 10 mg/kg after 0.25 to 144 hrs by LC-MS/MS analysis", "format": "ADME, organism-based", "settings": "in vivo"}, "[10]": {"assay": "Drug concentration in Wistar rat plasma at 10 mg/kg, po after 8 hrs by LC-MS/MS analysis", "format": "ADME, organism-based"}, "[11]": {"assay": "Brain to plasma permeability coefficient, Kp in Wistar rat at 10 mg/kg, po after 1 hr by LC-MS/MS analysis", "format": "ADME, organism-based"}, "[12]": {"assay": "Brain to plasma permeability coefficient, Kp in Wistar rat at 10 mg/kg, po after 8 hrs by LC-MS/MS analysis", "format": "ADME, organism-based"}, "[13]": {"assay": "Brain to plasma permeability coefficient, Kp in Wistar rat at 10 mg/kg, po after 24 hrs by LC-MS/MS analysis", "format": "ADME, organism-based"}, "[14]": {"assay": "Unbound brain-to-plasma concentration ratio in Wistar rat at 10 mg/kg, po after 1 hr by LC-MS/MS analysis", "format": "ADME, organism-based", "settings": "read-out: K(p,uu,brain)"}, "[15]": {"assay": "Ratio of Cmax in brain to plasma in Wistar rat at 10 mg/kg, po after 144 hrs by LC-MS/MS analysis", "format": "ADME, organism-based"}, "[16]": {"target": "Cytochrome P450 2C9 (Homo sapiens, UniProt P11712)", "sequence (P11712 whole entry)": "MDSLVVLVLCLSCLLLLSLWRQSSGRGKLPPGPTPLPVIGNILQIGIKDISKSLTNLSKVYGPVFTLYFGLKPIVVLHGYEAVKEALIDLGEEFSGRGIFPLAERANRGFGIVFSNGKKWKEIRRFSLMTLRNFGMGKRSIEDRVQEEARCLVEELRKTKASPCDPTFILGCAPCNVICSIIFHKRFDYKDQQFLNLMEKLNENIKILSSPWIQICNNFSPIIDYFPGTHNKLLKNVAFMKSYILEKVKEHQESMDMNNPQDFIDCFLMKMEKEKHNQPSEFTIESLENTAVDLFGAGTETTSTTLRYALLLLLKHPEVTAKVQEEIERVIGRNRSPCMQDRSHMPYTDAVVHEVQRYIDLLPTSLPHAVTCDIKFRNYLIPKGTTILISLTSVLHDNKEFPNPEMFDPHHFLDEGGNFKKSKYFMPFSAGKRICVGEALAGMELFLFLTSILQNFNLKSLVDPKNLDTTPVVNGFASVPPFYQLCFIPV", "assay": "Inhibition of CYP2C9 (unknown origin) up to 10 uM", "format": "ADME"}, "[17]": {"target": "Cytochrome P450 2C19 (Homo sapiens, UniProt P33261)", "sequence (P33261 whole entry)": "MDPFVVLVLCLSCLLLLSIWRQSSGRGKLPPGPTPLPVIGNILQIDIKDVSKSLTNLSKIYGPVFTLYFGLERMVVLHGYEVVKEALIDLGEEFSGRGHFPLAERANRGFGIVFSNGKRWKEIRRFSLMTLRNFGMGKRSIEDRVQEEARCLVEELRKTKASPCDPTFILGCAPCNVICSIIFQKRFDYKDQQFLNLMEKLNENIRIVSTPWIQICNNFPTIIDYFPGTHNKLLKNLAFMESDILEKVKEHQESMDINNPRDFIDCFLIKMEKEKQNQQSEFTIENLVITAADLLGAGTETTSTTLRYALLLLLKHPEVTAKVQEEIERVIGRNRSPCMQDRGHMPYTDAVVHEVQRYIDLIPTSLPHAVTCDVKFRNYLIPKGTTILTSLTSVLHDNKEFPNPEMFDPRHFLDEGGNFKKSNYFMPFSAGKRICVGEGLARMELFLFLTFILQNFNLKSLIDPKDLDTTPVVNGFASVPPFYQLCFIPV", "assay": "Inhibition of CYP2C19 (unknown origin) up to 10 uM", "format": "ADME"}, "[18]": {"tested_on": "Rattus norvegicus", "assay": "Memory enhancement effect in time-delay induced Wistar rat model of amnesia assessed as increase in exploration time for novel object in retention trial at 3 mg/kg, po administered as single dose and measured on day 9 by novel object recognition test (reference value: 12.06 sec)", "format": "functional"}, "[19]": {"tested_on": "Rattus norvegicus", "assay": "Memory enhancement effect in time-delay induced Wistar rat model of amnesia assessed as exploration time for object1 in acquisition trial at 1 mg/kg, po administered as single dose and measured on day 8 by novel object recognition test (reference value: 13.95 sec)", "format": "functional"}, "[20]": {"tested_on": "Rattus norvegicus", "assay": "Memory enhancement effect in time-delay induced Wistar rat model of amnesia assessed as exploration time for familiar object in retention trial at 1 mg/kg, po administered as single dose and measured on day 9 by novel object recognition test (reference value: 13.05 sec)", "format": "functional"}, "[21]": {"tested_on": "Rattus norvegicus", "assay": "Memory enhancement effect in time-delay induced Wistar rat model of amnesia assessed as increase in novel object discrimination index at 3 mg/kg, po administered as single dose and measured on day 9 by novel object recognition test (reference value: 0.03)", "format": "functional"}, "[22]": {"tested_on": "Rattus norvegicus", "assay": "Memory enhancement effect in scopolamine-induced Wistar rat model of amnesia assessed as exploration time for familiar object in retention trial at 0.15 mg/kg, po administered as single dose and measured on day 9 by novel object recognition test (reference value: 8.59 sec)", "format": "functional"}, "[23]": {"tested_on": "Rattus norvegicus", "assay": "Memory enhancement effect in scopolamine-induced Wistar rat model of amnesia assessed as exploration time for object2 in acquisition trial at 0.05 mg/kg, po administered as single dose and measured on day 8 by novel object recognition test (reference value: 15.63 sec)", "format": "functional"}, "[24]": {"tested_on": "Rattus norvegicus", "assay": "Memory enhancement effect in time-delay induced Wistar rat model of amnesia assessed as exploration time for familiar object in retention trial at 0.05 mg/kg, po for 7 days and measured on day 8 by novel object recognition test (reference value: 10.20 sec)", "format": "functional"}, "[25]": {"tested_on": "Rattus norvegicus", "assay": "Memory enhancement effect in time-delay induced Wistar rat model of amnesia assessed as exploration time for object1 in acquisition trial at 0.5 mg/kg, po for 7 days and measured on day 8 by novel object recognition test (reference value: 13.73 sec)", "format": "functional"}, "[26]": {"assay": "Drug level in Wistar rat plasma at 0.15 mg/kg, po", "format": "ADME, organism-based", "settings": "in vivo"}, "[27]": {"tested_on": "Rattus norvegicus", "assay": "Memory enhancement effect in scopolamine-induced Wistar rat model of amnesia assessed as exploration time for object2 in acquisition trial at 0.05 mg/kg, po for 7 days and measured on day 8 by novel object recognition test (reference value: 15.63 sec)", "format": "functional"}, "[28]": {"tested_on": "Rattus norvegicus", "assay": "Memory enhancement effect in scopolamine-induced Wistar rat model of amnesia assessed as exploration time for novel object in retention trial at 0.15 mg/kg, po for 7 days and measured on day 8 by novel object recognition test (reference value: 12.09 sec)", "format": "functional"}, "[29]": {"tested_on": "Rattus norvegicus", "assay": "Memory enhancement effect in scopolamine-induced Wistar rat model of amnesia assessed as exploration time for object2 in acquisition trial at 0.50 mg/kg, po for 7 days and measured on day 8 by novel object recognition test (reference value: 15.63 sec)", "format": "functional"}, "[30]": {"tested_on": "Rattus norvegicus", "assay": "Improvement in social recognition time delay-induced Sprague-Dawley rat model of amnesia assessed as reduction in recognition index at 1 mg/kg, po administered as single dose prior to 1 hr training and measured after 30 mins (reference value: 1)", "format": "functional"}, "[31]": {"tested_on": "Rattus norvegicus", "assay": "Improvement in social recognition time delay-induced Sprague-Dawley rat model of amnesia assessed as increase in reduction in social investigation time at 0.05 mg/kg, po for 7 days measured on day 9 (reference value: -0.5%)", "format": "functional", "parameters": "scale not given: the % may be the effect or the level left"}, "[32]": {"tested_on": "Rattus norvegicus", "assay": "Improvement in social recognition time delay-induced Sprague-Dawley rat model of amnesia assessed as increase in reduction in social investigation time at 0.50 mg/kg, po for 7 days and measured on day 9 (reference value: -0.5%)", "format": "functional", "parameters": "scale not given: the % may be the effect or the level left"}, "[33]": {"tested_on": "Rattus norvegicus", "assay": "Improvement in social recognition time delay-induced Sprague-Dawley rat model of amnesia assessed as reduction in recognition index at 0.15 mg/kg, po for 7 days and measured on day 9 (reference value: 1.05)", "format": "functional"}, "[34]": {"assay": "Drug level in scopolamine-induced Sprague-Dawley rat plasma at 0.5 mg/kg, po for 7 days", "format": "ADME, organism-based"}, "[35]": {"assay": "Drug level in scopolamine-induced Sprague-Dawley rat brain at 0.15 mg/kg, po for 7 days", "format": "ADME, organism-based", "settings": "read-out: Drug uptake"}},
  "data": [
    {"compound": "CCC(=O)c1sc(-c2ccc(Cl)cc2)c(C)c1-c1ccc(S(N)(=O)=O)cc1", "values": [
      {"measurement": "Drug metabolism", "setting": "[1]", "result": 0.03, "unit": "nmol/min/mg"},
      {"measurement": "remaining at 0.5 h, 1 µM", "setting": "[2]", "result": 96, "unit": "%"},
      {"measurement": "remaining at 0.5 h, 1 µM", "setting": "[3]", "result": 90, "unit": "%"},
      {"measurement": "fraction unbound at 16 h, 5 µM", "setting": "[4]", "result": 0.0058},
      {"measurement": "AUC(0-t)", "setting": "[5]", "result": 63, "unit": "µM·h"},
      {"measurement": "Cmax", "setting": "[6]", "result": 900, "unit": "nM"},
      {"measurement": "Tmax", "setting": "[7]", "result": 4, "unit": "h"},
      {"measurement": "Vd", "setting": "[8]", "result": 4, "unit": "L/kg"},
      {"measurement": "bioavailability", "setting": "[9]", "result": 57, "unit": "%"},
      {"measurement": "concentration at 8 h", "setting": "[10]", "result": 830, "unit": "nM"},
      {"measurement": "Kp at 1 h", "setting": "[11]", "result": 4.63},
      {"measurement": "Kp at 8 h", "setting": "[12]", "result": 7.7},
      {"measurement": "Kp at 24 h", "setting": "[13]", "result": 8.85},
      {"measurement": "Kp uu at 1 h", "setting": "[14]", "result": 0.56},
      {"measurement": "Kp at 144 h", "setting": "[15]", "result": 10},
      {"measurement": "inhibition (INH)", "setting": "[16]", "result": "Not Active"},
      {"measurement": "inhibition (INH)", "setting": "[17]", "result": "Not Active"},
      {"measurement": "Time", "setting": "[18]", "result": 26.25, "unit": "s"},
      {"measurement": "Time", "setting": "[19]", "result": 23.61, "unit": "s"},
      {"measurement": "Time", "setting": "[20]", "result": 10.49, "unit": "s"},
      {"measurement": "Activity_index", "setting": "[21]", "result": 0.48},
      {"measurement": "Time", "setting": "[22]", "result": 4.86, "unit": "s"},
      {"measurement": "Time", "setting": "[23]", "result": 18.31, "unit": "s"},
      {"measurement": "Time", "setting": "[24]", "result": 7.64, "unit": "s"},
      {"measurement": "Time", "setting": "[25]", "result": 10.04, "unit": "s"},
      {"measurement": "concentration", "setting": "[26]", "result": 70, "unit": "nM"},
      {"measurement": "Time", "setting": "[27]", "result": 18.31, "unit": "s"},
      {"measurement": "Time", "setting": "[28]", "result": 12.8, "unit": "s"},
      {"measurement": "Time", "setting": "[29]", "result": 16.55, "unit": "s"},
      {"measurement": "Activity_index", "setting": "[30]", "result": 0.68},
      {"measurement": "Activity", "setting": "[31]", "result": 18.97, "unit": "%"},
      {"measurement": "Activity", "setting": "[32]", "result": 46.16, "unit": "%"},
      {"measurement": "Activity_index", "setting": "[33]", "result": 0.56},
      {"measurement": "concentration at 168 h", "setting": "[34]", "result": 580, "unit": "nM"},
      {"measurement": "concentration at 168 h", "setting": "[35]", "result": 530, "unit": "nM"}
    ]}
  ]
}
